# Reference: patent US6531606B1, “Pharmaceutical compositions incorporating aryl substituted olefinic amine compounds” (Targacept, Inc., priority 1997, dated 2003)
# Counter-ions that a name gives are not always drawn. Like-named read-outs stand apart in the source and are kept apart here.
# How the values were obtained:
# [1] = tested on: CNS nicotinic receptors (dopamine release); test: Determination of dopamine release; assay type: cell-based; settings: for Emax: read-out: Dopamine Release Emax
# [2] = molecular target: T1, ganglionic receptors (ganglionic-type nicotinic receptors) (Rattus norvegicus, UniProt P04757+P12392); test: Determination of interaction with ganglia; assay type: cell-based; settings: maximal activation (Emax) as percentage of maximal activation induced by (S)-(-)-nicotine
# T1 construct: endogenous in cells; host or cells: cell preparations derived from the adrenal gland
# T1 sequence (P04757 26-499): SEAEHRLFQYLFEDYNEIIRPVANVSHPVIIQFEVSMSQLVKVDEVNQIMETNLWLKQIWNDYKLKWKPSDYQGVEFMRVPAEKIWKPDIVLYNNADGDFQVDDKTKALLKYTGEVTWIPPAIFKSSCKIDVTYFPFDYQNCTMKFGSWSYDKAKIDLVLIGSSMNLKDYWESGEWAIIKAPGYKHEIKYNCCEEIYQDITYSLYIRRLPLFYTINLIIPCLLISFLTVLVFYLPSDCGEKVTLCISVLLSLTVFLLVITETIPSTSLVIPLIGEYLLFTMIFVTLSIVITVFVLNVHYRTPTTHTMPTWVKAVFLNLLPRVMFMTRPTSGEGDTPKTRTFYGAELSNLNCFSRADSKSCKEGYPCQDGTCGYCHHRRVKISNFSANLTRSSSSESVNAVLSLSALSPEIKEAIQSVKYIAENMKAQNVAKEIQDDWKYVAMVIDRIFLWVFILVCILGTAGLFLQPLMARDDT
# T1 sequence (P12392 21-495): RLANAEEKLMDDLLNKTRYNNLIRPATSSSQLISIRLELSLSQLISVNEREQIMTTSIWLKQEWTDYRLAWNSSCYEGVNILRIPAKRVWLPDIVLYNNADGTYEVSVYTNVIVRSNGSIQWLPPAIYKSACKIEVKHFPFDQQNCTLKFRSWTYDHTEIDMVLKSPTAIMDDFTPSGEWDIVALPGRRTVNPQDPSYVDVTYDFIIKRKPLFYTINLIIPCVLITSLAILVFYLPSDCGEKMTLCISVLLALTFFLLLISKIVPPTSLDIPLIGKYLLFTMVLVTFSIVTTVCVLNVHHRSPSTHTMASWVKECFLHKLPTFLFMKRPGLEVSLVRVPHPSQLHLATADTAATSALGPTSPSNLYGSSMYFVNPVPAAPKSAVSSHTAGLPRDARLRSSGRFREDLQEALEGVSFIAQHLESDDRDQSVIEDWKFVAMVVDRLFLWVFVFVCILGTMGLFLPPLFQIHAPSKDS
# Source text: By this is meant that a particular dose of compound resulting in prevention and/or treatment of a CNS disorder is essentially ineffective in eliciting activation of certain ganglionic-type nicotinic receptors. […] As such, the compounds of the present invention have poor ability to cause isotopic rubidium ion flux through nicotinic receptors in cell preparations derived from the adrenal gland. Generally, the compounds useful in the present invention activate isotopic rubidium ion flux by less than 25 percent, often by less than 15 percent, frequently by less than 10 percent, and even essentially 0 percent, of that elicited by an equal molar amount of (S)-(−)-nicotine.
# (§1) The determination of the interaction of the compounds with ganglionic receptors was carried out in accordance with the techniques described in U.S. Pat. No. 5,597,919 to Dull et al., the subject matter of which is already incorporated herein by reference in its entirety. […] The maximal activation for individual compounds (Emax) was determined as a percentage of the maximal activation induced by (S)-(−)-nicotine.
# [3] = molecular target: T2, muscle receptors (nicotinic receptors of human muscle) (Homo sapiens, UniProt P02708+P07510+Q07001); test: Determination of interaction with muscle; assay type: cell-based; settings: maximal activation (Emax) as percentage of maximal activation induced by (S)-(-)-nicotine
# T2 construct: endogenous in cells; host or cells: cell preparations derived from muscle
# T2 sequence (P02708 21-457): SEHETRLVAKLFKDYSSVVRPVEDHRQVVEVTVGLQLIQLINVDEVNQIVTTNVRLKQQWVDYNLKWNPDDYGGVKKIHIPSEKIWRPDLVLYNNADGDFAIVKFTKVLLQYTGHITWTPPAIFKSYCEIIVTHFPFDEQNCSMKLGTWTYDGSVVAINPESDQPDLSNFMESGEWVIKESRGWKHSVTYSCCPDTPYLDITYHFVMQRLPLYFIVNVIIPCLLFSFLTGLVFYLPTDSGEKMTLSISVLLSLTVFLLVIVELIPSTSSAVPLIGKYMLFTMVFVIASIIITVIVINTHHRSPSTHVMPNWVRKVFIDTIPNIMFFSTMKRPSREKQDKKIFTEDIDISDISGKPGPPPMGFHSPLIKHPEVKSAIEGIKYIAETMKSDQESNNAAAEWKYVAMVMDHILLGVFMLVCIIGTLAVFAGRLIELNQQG
# T2 sequence (P11230 24-501 partner): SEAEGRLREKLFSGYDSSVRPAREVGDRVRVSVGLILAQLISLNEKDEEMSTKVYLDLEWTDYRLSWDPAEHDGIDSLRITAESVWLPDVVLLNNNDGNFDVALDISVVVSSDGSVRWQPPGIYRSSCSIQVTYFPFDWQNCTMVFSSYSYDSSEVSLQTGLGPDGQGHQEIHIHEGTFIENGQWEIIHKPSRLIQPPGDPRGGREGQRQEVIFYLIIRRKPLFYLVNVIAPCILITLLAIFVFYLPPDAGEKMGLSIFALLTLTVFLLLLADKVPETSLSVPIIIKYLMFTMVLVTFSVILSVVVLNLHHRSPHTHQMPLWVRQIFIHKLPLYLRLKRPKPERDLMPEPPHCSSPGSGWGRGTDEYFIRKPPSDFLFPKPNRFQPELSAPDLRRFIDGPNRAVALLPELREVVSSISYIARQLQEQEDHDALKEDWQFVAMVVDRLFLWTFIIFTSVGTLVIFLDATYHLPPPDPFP
# T2 sequence (Q07001 22-517): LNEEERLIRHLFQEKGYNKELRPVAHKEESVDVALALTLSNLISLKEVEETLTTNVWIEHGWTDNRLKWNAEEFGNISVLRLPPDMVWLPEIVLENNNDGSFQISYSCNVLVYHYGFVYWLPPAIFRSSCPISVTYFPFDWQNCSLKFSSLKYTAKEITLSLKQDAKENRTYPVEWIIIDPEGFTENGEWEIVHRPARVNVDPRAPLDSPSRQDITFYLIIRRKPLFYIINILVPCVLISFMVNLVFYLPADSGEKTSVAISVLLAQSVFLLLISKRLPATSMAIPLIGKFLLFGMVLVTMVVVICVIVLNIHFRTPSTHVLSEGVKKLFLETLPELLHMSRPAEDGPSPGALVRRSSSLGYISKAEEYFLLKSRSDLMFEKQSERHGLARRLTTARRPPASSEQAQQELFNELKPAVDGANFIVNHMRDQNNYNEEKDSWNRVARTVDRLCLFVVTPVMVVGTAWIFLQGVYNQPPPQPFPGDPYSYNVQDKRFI
# T2 sequence (P07510 23-517): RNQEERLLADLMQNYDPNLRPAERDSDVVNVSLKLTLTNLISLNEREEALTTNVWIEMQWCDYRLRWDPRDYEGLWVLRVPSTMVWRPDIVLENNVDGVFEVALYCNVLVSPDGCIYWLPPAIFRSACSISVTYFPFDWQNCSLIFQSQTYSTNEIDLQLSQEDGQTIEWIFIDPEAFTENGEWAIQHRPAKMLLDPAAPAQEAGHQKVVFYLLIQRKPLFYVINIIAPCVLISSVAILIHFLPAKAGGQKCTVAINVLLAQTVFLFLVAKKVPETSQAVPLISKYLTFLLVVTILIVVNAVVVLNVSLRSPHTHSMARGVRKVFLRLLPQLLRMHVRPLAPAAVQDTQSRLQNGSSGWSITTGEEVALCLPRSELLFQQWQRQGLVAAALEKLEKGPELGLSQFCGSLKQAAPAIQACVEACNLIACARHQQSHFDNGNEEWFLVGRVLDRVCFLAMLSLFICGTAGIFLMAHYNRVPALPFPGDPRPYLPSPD
# Source text: The compounds of the present invention, when employed in effective amounts in accordance with the method of the present invention, lack the ability to elicit activation of nicotinic receptors of human muscle to any significant degree. […] Generally, typical compounds useful in carrying out the present invention activate isotopic rubidium ion flux by less than 20 percent, often by less than 15 percent, and frequently by less than 10 percent, of that elicited by an equal molar amount of (S)-(−)-nicotine.
# as §1, with “muscle” for “ganglionic”
# [4] = molecular target: T3, high affinity CNS nicotinic receptors (Rattus norvegicus, UniProt P09483+P12390); test: biochemical; assay type: binding; settings: calculated from IC50 values using the method of Cheng et al.
# T3 construct: from tissue
# T3 sequence (P09483 31-630): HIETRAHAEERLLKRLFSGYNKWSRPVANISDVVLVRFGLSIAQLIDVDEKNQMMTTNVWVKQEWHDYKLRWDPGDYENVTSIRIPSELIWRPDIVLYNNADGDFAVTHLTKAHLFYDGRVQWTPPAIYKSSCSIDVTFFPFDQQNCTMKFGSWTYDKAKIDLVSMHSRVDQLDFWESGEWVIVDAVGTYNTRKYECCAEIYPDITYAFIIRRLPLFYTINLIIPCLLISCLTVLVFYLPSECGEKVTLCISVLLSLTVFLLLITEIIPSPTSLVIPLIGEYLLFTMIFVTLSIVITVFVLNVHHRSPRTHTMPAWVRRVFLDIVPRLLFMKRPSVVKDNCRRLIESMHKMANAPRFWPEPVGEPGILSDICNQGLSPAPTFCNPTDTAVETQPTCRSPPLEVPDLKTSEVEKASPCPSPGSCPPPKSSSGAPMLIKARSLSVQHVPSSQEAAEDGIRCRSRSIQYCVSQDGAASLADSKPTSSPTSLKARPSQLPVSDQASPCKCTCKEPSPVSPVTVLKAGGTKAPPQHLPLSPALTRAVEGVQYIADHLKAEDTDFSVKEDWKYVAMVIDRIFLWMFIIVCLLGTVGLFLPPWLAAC
# T3 sequence (P12390 25-500): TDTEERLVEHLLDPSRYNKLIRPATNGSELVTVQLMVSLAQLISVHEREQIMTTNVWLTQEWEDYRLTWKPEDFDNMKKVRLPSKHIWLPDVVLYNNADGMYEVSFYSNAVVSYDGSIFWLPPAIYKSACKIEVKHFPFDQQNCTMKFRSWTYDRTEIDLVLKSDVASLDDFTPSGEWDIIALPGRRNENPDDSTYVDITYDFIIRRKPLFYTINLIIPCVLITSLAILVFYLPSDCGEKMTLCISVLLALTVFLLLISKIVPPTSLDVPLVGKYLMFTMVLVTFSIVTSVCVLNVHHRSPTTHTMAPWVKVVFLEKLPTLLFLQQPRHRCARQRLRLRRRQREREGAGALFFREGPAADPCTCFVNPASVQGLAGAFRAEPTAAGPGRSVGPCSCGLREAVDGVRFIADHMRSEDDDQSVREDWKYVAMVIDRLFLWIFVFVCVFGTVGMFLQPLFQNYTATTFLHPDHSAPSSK
# [5] = read-out: Dopamine Release EC50 (nM)
structure (smiles),measurement,setting,value
"NCC/C=C/c1cncc(Br)c1 (as salt: fumarate) [Sample No. 2, (E)-4-[3-(5-Bromopyridin)yl]-3-buten-1-amine Hemifumarate]",melting point,,175 to 176.5 °C
"CNCC/C=C/c1cncc(OCc2ccccc2)c1 [Sample No. 1, (E)-N-Methyl-4-[3-(5-benzyloxypyridin)yl]-3-buten-1-amine]",EC50,[1]; [5],4000 nM
same,Ganglion Effect (% nicotine),[2],0 % nicotine
same,Muscle Effect (% nicotine),[3],12 % nicotine
same,Ki,[4],5 nM
"NCC/C=C/c1cncc(Br)c1 [Sample No. 2, (E)-4-[3-(5-Bromopyridin)yl]-3-buten-1-amine Hemifumarate]",EC50,[1]; [5],2400 nM
same,Emax,[1],107%
same,Ganglion Effect (% nicotine),[2],11 % nicotine
same,Muscle Effect (% nicotine),[3],8 % nicotine
same,Ki,[4],79 nM
"CNCC/C=C/c1cncc(Oc2ccccc2)c1 [Sample No. 3, (E)-N-Methyl-4-[3-(5-phenoxypyridin)yl]-3-buten-1-amine]",EC50,[1]; [5],114 nM
same,Ganglion Effect (% nicotine),[2],<15 % nicotine
same,Muscle Effect (% nicotine),[3],5 % nicotine
same,Ki,[4],21 nM
"CNCC/C=C/c1cncc(OC(C)C)c1 [Sample No. 4, (E)-N-Methyl-4-[3-(5-isopropoxypyridin)yl]-3-buten-1-amine]",Ganglion Effect (% nicotine),[2],<15 % nicotine
same,Muscle Effect (% nicotine),[3],8 % nicotine
same,Ki,[4],6 nM
"CNCC/C=C/c1cncc(COC)c1 [Sample No. 5, (E)-N-Methyl-4-[3-(5-methoxymethylpyridin)yl]-3-buten-1-amine]",EC50,[1]; [5],16000 nM
same,Ganglion Effect (% nicotine),[2],0 % nicotine
same,Muscle Effect (% nicotine),[3],13 % nicotine
same,Ki,[4],130 nM
"NCC/C=C/c1cccnc1.O=C(O)/C=C/C(=O)O.O=C(O)/C=C/C(=O)O [Sample No. 6, (E)-4-(3-pyridinyl)-3-buten-1-amine difumarate]",EC50,[1]; [5],5020 nM
same,Emax,[1],81%
same,Ganglion Effect (% nicotine),[2],23 % nicotine
same,Muscle Effect (% nicotine),[3],15 % nicotine
same,Ki,[4],119 nM
"CCOc1cncc(/C=C/CCNC)c1 [Sample No. 7, (E)-N-Methyl-4-[3-(5-ethoxypyridin)yl]-3-buten-1-amine Sesquifumarate]",EC50,[1]; read-out: Dopamine Release EC50,276 nM
same,Emax,[1],70%
same,Ganglion Effect (% nicotine),[2],<15 % nicotine
same,Muscle Effect (% nicotine),[3],3 % nicotine
same,Ki,[4],5 nM
"CNCC/C=C/c1cncc(-c2ccccc2)c1 [Sample No. 8, (E)-N-Methyl-4-[3-(5-phenylpyridin)yl]-3-buten-1-amine]",EC50,[1]; [5],> 100000 nM
same,Ganglion Effect (% nicotine),[2],0 % nicotine
same,Muscle Effect (% nicotine),[3],8 % nicotine
same,Ki,[4],184 nM
"CNCC/C=C/c1cncc(N)c1 [Sample No. 9, (E)-N-methyl-4-[3-(5-aminopyridin)yl]-3-buten-1-amine]",EC50,[1]; [5],2000 nM
same,Emax,[1],85%
same,Ganglion Effect (% nicotine),[2],4 % nicotine
same,Muscle Effect (% nicotine),[3],4 % nicotine
same,Ki,[4],658 nM
"CN1CCC[C@H]1c1cccnc1 [Sample No. C-1, (S)-(−)-nicotine, reference compound]",Ganglion Effect (% nicotine),[2],100 % nicotine
same,Muscle Effect (% nicotine),[3],100 % nicotine
